24 compounds from US12685312B2, “Sulfonamide apyrase inhibitors” (Texas Crop Science, Inc., priority 2022, dated 2026) can be followed below.

Test [1] has as its system plant pathogenic fungi (Zymoseptoria tritici strains, Microdochium nivale). In words: In vitro combination assay (Method 2), overall comparison with Roux Compound 13. Type of test: cell-based. The following applies: azoxystrobin, fluxapyroxad, desthio prothioconazole; three fungal strains. The procedure:
(§1) Method 2: In Vitro Assessment of Combination Activity
(§2) Selected compounds were assessed in combination with fungicides against a range of commercially important plant pathogenic fungi.
(§3) The test was conducted as follows. A fungicide was applied to a fungal plant pathogen at a rate slightly below that at which it gave any control, in combination with a suitable dose of the test compound. The test compound was recorded as active if control of the pathogen was observed.
(§4) In more detail, the test was conducted as follows. For each combination of fungicide, pathogen and test compound, the following wells were used. Well 1 contained a fungal pathogen growing on agar, and a fungicide at a rate just below that at which it gave any control of the pathogen. Well 2 was the same as Well 1, except that the test compound was also added at Rate 1. Well 3 was the same as Well 2, except that the test compound was added at Rate 2, where Rate 2 was higher than Rate 1. Finally, as a benchmark, Well 4 was the same as Well 1, except that it contained the fungicide at a higher rate, at which it gave partial control of the pathogen. Each of the Wells 1 to 4 were run in duplicate, giving a total of 8 wells for each combination of fungicide, pathogen and test compound. For each well, after a suitable period of incubation, a visual assessment of the % control of the pathogen by the fungicide was made.
(§5) The following fungicides were used in this assay: azoxystrobin, fluxapyroxad, and desthio prothioconazole. The following fungal pathogens were used in this assay: First, a strain of Zymoseptoria tritici with a reduced susceptibility to strobilurin fungicides; second a strain of Zymoseptoria tritici with a reduced susceptibility to SDHI fungicides (i.e., those that inhibit succinate dehydrogenase); and third, Microdochium nivale.

The next test has as its system Microdochium nivale. In words: In vitro assessment of combination activity with fungicides (Method 2).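 Also: scored as inactive active or highly active.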 To be noted: fungicide at a rate just below that giving any control; visual % control. Type of test: cell-based. The procedure: as §1, §2, §3, §4, §5
Test [2] concerns Zymoseptoria tritici with a reduced susceptibility to strobilurin fungicides. The test is described as above. The following applies: fungicide at a rate just below that giving any control; visual % control. Type of test: cell-based. The procedure:
as §1, §2, §3, §4, §5

Test [3] has as its system Zymoseptoria tritici with a reduced susceptibility to SDHI fungicides. The test is described as above. Type of test: cell-based. The following applies: fungicide at a rate just below that giving any control; visual % control. The procedure: as §1, §2, §3, §4, §5;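 also: scored as inactive active or highly active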
The subject of a further test is apyrase. In words: Screen for apyrase inhibitors (Method 1, in vitro phosphate-release absorbance assay). Format: biochemical. To be noted: inhibitor conc at 1 mM stock, 1 hr room temperature, absorbance 630 nm; rounded average of two assay results. In a few lines: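 Phosphate-release colorimetric assay (Windsor method) in 60 mM Hepes, 3 mM MgCl2, 3 mM CaCl2, 3 mM ATP, pH 6.5, with compound or DMSO control added. Released phosphate developed with ammonium molybdate and ascorbic acid/TCA, then stopped with citrate/acetic acid.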
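For enhancement of activity of azoxystrobin in this document: scored as inactive active or highly active.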
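For enhancement of activity of desthio prothioconazole in this document: scored as inactive active or highly active.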
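For enhancement of activity of fluxapyroxad in this document: scored as inactive active or highly active.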

Take `O=C(Nc1cccc([N+](=O)[O-])c1)c1cccc(S(=O)(=O)Nc2ccc(Br)cc2)c1` [Roux compound 13, reference compound]: the “enhancer activity in the combination assay compared with Roux Compound 13” value in test [1] is reported as “little or no activity”. Further, in the test on Microdochium nivale, the “enhancement of activity of azoxystrobin” value was “enhancing the activity”. Besides, in test [2], the “enhancement of activity of azoxystrobin” value is on record as “failing to enhance activity”, the “enhancement of activity of desthio prothioconazole” value is on record as “failing to enhance activity” and the “enhancement of activity of fluxapyroxad” value is “failing to enhance activity”. For the same compound, in test [3], the “enhancement of activity of azoxystrobin” value is listed as “failing to enhance activity”, the “enhancement of activity of desthio prothioconazole” value is recorded as “failing to enhance activity” and the “enhancement of activity of fluxapyroxad” value is given as “failing to enhance activity”.

For the compound `COc1cc(Cl)c(C)cc1NC(=O)c1ccccc1S(=O)(=O)N(C)c1ccccc1` [I-807, N-(4-chloro-2-methoxy-5-methylphenyl)-2-(N-methyl-N-phenylsulfamoyl)benzamide], the “enhancer activity in the combination assay compared with Roux Compound 13” value in test [1] was “superior enhancer activity than Roux Compound 13”. Also, in the test on apyrase, the “% Inhibition of Apyrase” value is on record as 82%.

Take `COC(=O)c1ccc(NC(=O)c2ccccc2S(=O)(=O)N(C)c2ccccc2)cc1` [I-233, methyl 4-(2-(N-methyl-N-phenylsulfamoyl)benzamido)benzoate]: the “enhancer activity in the combination assay compared with Roux Compound 13” value in test [1] is “superior enhancer activity than Roux Compound 13”. For the same compound, the “% Inhibition of Apyrase” value in the test on apyrase is 61%.

As for `N#Cc1cccc(NC(=O)c2cccc(S(=O)(=O)Nc3ccc(Br)cc3)c2)c1` [I-16, 3-(N-(4-bromophenyl)sulfamoyl)-N-(3-cyanophenyl)benzamide], the “enhancer activity in the combination assay compared with Roux Compound 13” value in test [1] is on record as “superior enhancer activity than Roux Compound 13”. In addition, the “% Inhibition of Apyrase” value with apyrase was 54%.

Turning to `N#Cc1ccccc1S(=O)(=O)Nc1cccc(C(=O)Nc2cccc(C(F)(F)F)c2)c1` [I-229, 3-((2-cyanophenyl)sulfonamido)-N-(3-(trifluoromethyl)phenyl)benzamide], the “enhancer activity in the combination assay compared with Roux Compound 13” value in test [1] is on record as “superior enhancer activity than Roux Compound 13”. The “% Inhibition of Apyrase” value with apyrase came out at 66%.

`O=C(Nc1cccc(C(F)(F)F)c1)c1cccc(NS(=O)(=O)c2cccc(C(F)(F)F)c2)c1` [I-217, N-(3-(trifluoromethyl)phenyl)-3-((3-(trifluoromethyl)phenyl)sulfonamido) benzamide]: in test [1], the “enhancer activity in the combination assay compared with Roux Compound 13” value is “superior enhancer activity than Roux Compound 13”. For the same compound, in the test with apyrase, the “% Inhibition of Apyrase” value came out at 70%.

For `O=C(Nc1ccc(Br)cc1)c1cccc(S(=O)(=O)Nc2cc(C(F)(F)F)ccc2Cl)c1` [I-178, N-(4-bromophenyl)-3-(N-(2-chloro-5-(trifluoromethyl)phenyl)sulfamoyl)benzamide], the “enhancer activity in the combination assay compared with Roux Compound 13” value in test [1] is listed as “superior enhancer activity than Roux Compound 13”. Also, in the test with apyrase, the “% Inhibition of Apyrase” value is 76%.

`Cc1ccc(C(=O)Nc2cccc(NS(=O)(=O)c3ccccc3)c2)cc1F` [I-209, 3-fluoro-4-methyl-N-(3-(phenylsulfonamido)phenyl)benzamide]: the “enhancer activity in the combination assay compared with Roux Compound 13” value in test [1] is recorded as “superior enhancer activity than Roux Compound 13”. Moreover, the “% Inhibition of Apyrase” value with apyrase was 75%.

With `O=C(Nc1cccc(C(F)(F)F)c1)c1cccc(NS(=O)(=O)c2cccc(Cl)c2)c1` [I-317, 3-((3-chlorophenyl)sulfonamido)-N-(3-(trifluoromethyl)phenyl)benzamide], in test [1], the “enhancer activity in the combination assay compared with Roux Compound 13” value is reported as “superior enhancer activity than Roux Compound 13”. The “% Inhibition of Apyrase” value with apyrase was found to be 69%.

As for `O=C(Nc1ccc(Br)cc1)c1cccc(S(=O)(=O)Nc2ccc3c(c2)OCO3)c1` [I-201, 3-(N-(benzo[d][1,3]dioxol-5-yl)sulfamoyl)-N-(4-bromophenyl)benzamide], the “enhancer activity in the combination assay compared with Roux Compound 13” value in test [1] was “superior enhancer activity than Roux Compound 13”. Besides, the “% Inhibition of Apyrase” value with apyrase was determined as 77%.

As for `Cc1ccccc1NS(=O)(=O)c1cc(C(=O)Nc2cccc([N+](=O)[O-])c2)ccc1Cl` [I-2, 4-chloro-N-(3-nitrophenyl)-3-(N-(o-tolyl)sulfamoyl)benzamide], in test [1], the “enhancer activity in the combination assay compared with Roux Compound 13” value is “superior enhancer activity than Roux Compound 13”. The “% Inhibition of Apyrase” value in the test with apyrase was 77%.

On to `COc1ccc(NC(=O)c2cccc(S(=O)(=O)Nc3ccc(Br)cc3)c2)cc1` [I-18, 3-(N-(4-bromophenyl)sulfamoyl)-N-(4-methoxyphenyl)benzamide], for which the “enhancer activity in the combination assay compared with Roux Compound 13” value in test [1] is “superior enhancer activity than Roux Compound 13”. Besides, the “% Inhibition of Apyrase” value with apyrase is 51%.

Regarding `O=C(Nc1cccc(S(=O)(=O)Nc2ccc(Br)cc2)c1)C1CCCCC1` [I-219, N-(3-(N-(4-bromophenyl)sulfamoyl)phenyl) cyclohexanecarboxamide], the “enhancer activity in the combination assay compared with Roux Compound 13” value in test [1] is on record as “superior enhancer activity than Roux Compound 13”. Moreover, the “% Inhibition of Apyrase” value in the test on apyrase is 73%.

As to `O=C(Nc1ccccc1)c1ccc(S(=O)(=O)Nc2ccccc2)cc1` [I-392, N-phenyl-4-(N-phenylsulfamoyl)benzamide], the “% Inhibition of Apyrase” value in the test on apyrase was 59%. Besides, the “enhancement of activity of desthio prothioconazole” value (with Microdochium nivale; in test [2]; in test [3]) was “highly active” each time. Further, the “enhancement of activity of azoxystrobin” value in test [2] and in test [3] was “enhanced the activity” throughout.

As for `O=C(/C=C/c1ccco1)Nc1cccc(S(=O)(=O)Nc2ccc(Br)cc2)c1` [I-226, (E)-N-(3-(N-(4-bromophenyl)sulfamoyl)phenyl)-3-(furan-2-yl)acrylamide], the “enhancer activity in the combination assay compared with Roux Compound 13” value in test [1] is “superior enhancer activity than Roux Compound 13”. Moreover, in the test with apyrase, the “% Inhibition of Apyrase” value stood at 73%.

Take `O=C(Nc1cccc(S(=O)(=O)Nc2ccc(Br)cc2)c1)c1ccc(Cl)nc1` [I-221, N-(3-(N-(4-bromophenyl)sulfamoyl)phenyl)-6-chloronicotinamide]: the “enhancer activity in the combination assay compared with Roux Compound 13” value in test [1] is “superior enhancer activity than Roux Compound 13”. The “% Inhibition of Apyrase” value in the test on apyrase is recorded as 67%.

Turning to `Cc1cc(NC(=O)c2cccc(NS(=O)(=O)c3ccc(F)c(F)c3)c2)ccc1Br` [I-191, N-(4-bromo-3-methylphenyl)-3-((3,4-difluorophenyl)sulfonamido)benzamide], the “enhancer activity in the combination assay compared with Roux Compound 13” value in test [1] is listed as “superior enhancer activity than Roux Compound 13”. The “% Inhibition of Apyrase” value with apyrase came to 76%.

Take `O=C(Nc1cccc(Br)c1)c1cccc(S(=O)(=O)Nc2ccc3c(c2)OCO3)c1` [I-186, 3-(N-(benzo[d][1,3]dioxol-5-yl)sulfamoyl)-N-(3-bromophenyl)benzamide]: the “enhancer activity in the combination assay compared with Roux Compound 13” value in test [1] is given as “superior enhancer activity than Roux Compound 13”. For the same compound, in the test on apyrase, the “% Inhibition of Apyrase” value was 72%.

`NS(=O)(=O)c1cc(C(=O)Nc2ccc(S(=O)(=O)Nc3ccc(Cl)cc3)cc2)ccc1Cl` [I-987, 4-chloro-N-(4-(N-(4-chlorophenyl)sulfamoyl)phenyl)-3-sulfamoylbenzamide]: in the test on apyrase, the “% Inhibition of Apyrase” value turned out to be 55%.

As for `O=C(Nc1cccc([N+](=O)[O-])c1)c1cccc(S(=O)(=O)Nc2cccc([N+](=O)[O-])c2)c1` [I-32, N-(3-nitrophenyl)-3-(N-(3-nitrophenyl)sulfamoyl)benzamide], the “% Inhibition of Apyrase” value with apyrase stood at 21%.

Take `COc1ccccc1C(=O)Nc1cccc(S(=O)(=O)Nc2ccc(Br)cc2)c1` [I-331, N-(3-(N-(4-bromophenyl)sulfamoyl)phenyl)-2-methoxybenzamide]: the “% Inhibition of Apyrase” value with apyrase is listed as 64%.

For `Cc1c(Cl)cccc1NC(=O)c1cccc(S(=O)(=O)N2CCc3ccccc32)c1` [I-455, N-(3-chloro-2-methylphenyl)-3-(indolin-1-ylsulfonyl)benzamide], the “% Inhibition of Apyrase” value in the test on apyrase turned out to be 60%.

On to `O=C(Nc1ccc(S(=O)(=O)Nc2cccc(C(F)(F)F)c2)cc1)c1cccc(F)c1` [I-998, 3-fluoro-N-(4-(N-(3-(trifluoromethyl)phenyl)sulfamoyl)phenyl) benzamide], for which the “% Inhibition of Apyrase” value with apyrase was determined as 34%.

With `O=C(Nc1ccccc1NS(=O)(=O)c1cccs1)c1cc(Cl)ccc1F` [I-840, 5-chloro-2-fluoro-N-(2-(thiophene-2-sulfonamido)phenyl)benzamide], in the test on apyrase, the “% Inhibition of Apyrase” value is reported as 18%.
